Data on 18 molecules can be found in patent publication US9751869B2, “LXR modulators” (BRISTOL-MYERS SQUIBB COMPANY, priority 2013, dated 2017).

In this test the target is T1, LXRβ (Homo sapiens, UniProt P55055).
T1 construct: Co-transfection expression plasmids, comprising full-length LXRα (pCMX-h LXRα or LXRβ (pCMX-hLXRβ)); expressed in transfected cells; host or cells: CV-1 African green monkey kidney cells, transient transfection with pCMX-hLXRβ
T1 sequence (P55055 1-460): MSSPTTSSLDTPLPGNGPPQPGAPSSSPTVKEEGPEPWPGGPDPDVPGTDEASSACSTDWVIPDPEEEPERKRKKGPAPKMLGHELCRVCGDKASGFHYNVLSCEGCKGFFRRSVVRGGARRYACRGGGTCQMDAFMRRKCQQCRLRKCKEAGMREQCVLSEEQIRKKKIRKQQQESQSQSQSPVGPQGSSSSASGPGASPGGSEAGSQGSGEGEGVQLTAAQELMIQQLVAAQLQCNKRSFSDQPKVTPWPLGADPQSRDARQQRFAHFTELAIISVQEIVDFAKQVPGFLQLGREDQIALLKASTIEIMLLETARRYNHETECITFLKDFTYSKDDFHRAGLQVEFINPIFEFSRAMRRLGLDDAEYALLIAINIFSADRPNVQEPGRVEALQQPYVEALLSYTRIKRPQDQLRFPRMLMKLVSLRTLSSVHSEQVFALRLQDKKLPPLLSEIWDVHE
T1 sequence (P19793 1-462 partner): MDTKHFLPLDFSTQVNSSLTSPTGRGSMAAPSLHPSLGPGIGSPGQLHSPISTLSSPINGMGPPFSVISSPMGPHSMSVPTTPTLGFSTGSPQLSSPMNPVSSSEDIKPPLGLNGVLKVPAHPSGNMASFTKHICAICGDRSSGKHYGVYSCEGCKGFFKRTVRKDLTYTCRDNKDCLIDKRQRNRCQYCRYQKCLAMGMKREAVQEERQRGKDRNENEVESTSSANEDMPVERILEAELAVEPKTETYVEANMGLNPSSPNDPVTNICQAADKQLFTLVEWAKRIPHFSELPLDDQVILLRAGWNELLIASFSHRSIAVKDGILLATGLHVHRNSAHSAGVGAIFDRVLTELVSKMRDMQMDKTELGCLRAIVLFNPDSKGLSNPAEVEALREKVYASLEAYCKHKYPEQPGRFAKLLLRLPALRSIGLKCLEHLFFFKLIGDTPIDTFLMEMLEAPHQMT
Nature of the test: LXR/LXRE co-transfection assay (luciferase reporter) in CV-1 cells, LXRβ. The class given is cell-based. Particulars: for EC50: CV-1 cells transfected with pCMX-hLXRβ and LXREx1-Tk-Luciferase, 20 hours incubation, read-out: LXRbeta agonism EC50; for Emax: CV-1 cells, relative to maximum response of high control N-(3-((4-fluorophenyl)-(naphthalene-2-sulfonyl)amino)propyl)-2,2-dimethylpropionamide, read-out: LXRbeta % EFFICACY
The gist of the method:
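Luciferase read-out after 20 h compound treatment at 37 °C of CV-1 cells carrying transfected hLXRβ plus one-copy LXRE reporter, endogenous RXR partnering. Sigmoidal fit of 10-point half-log curves (4 wells each) gave EC50; % efficacy versus maximal response of the propionamide reference agonist.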
(A reporter such as luciferase makes a cellular process visible.)

For `Cc1nc(-c2cc(-c3cccc(S(C)(=O)=O)c3)ccc2-n2nc(C(F)(F)F)cc2C)c(-c2ccc(OC(F)F)cc2)o1` [Example 383, 5-(4-(difluoromethoxy)phenyl)-2-methyl-4-(4-(5-methyl-3-(trifluoromethyl)-1H-pyrazol-1-yl)-3′-(methylsulfonyl)biphenyl-3-yl)oxazole], the 50% effective concentration (EC50) came to 18 nM and the Emax is 76%.

Regarding `Cc1nc(-c2cc(-c3cc(F)c(CO)c(S(C)(=O)=O)c3)ccc2-n2nc(C(F)(F)F)cc2C)c(-c2ccc(OC(F)F)cc2)o1` [Example 384, (3′-(5-(4-(difluoromethoxy)phenyl)-2-methyloxazol-4-yl)-3-fluoro-4′-(5-methyl-3-(trifluoromethyl)-1H-pyrazol-1-yl)-5-(methylsulfonyl)biphenyl-4-yl)methanol], the EC50 stood at 15 nM and the Emax is 73%.

With `Cc1nc(-c2cc(-c3cccc(S(C)(=O)=O)c3)ccc2-n2nc(C(F)(F)F)cc2C)c(-c2ccc(OC(F)(F)F)cc2)o1` [Example 385, 2-methyl-4-(4-(5-methyl-3-(trifluoromethyl)-1H-pyrazol-1-yl)-3′-(methylsulfonyl)biphenyl-3-yl)-5-(4-(trifluoromethoxy)phenyl) oxazole], the EC50 was 42 nM and the Emax worked out at 71%.

Consider `Cc1nc(-c2cc(-c3cc(F)c(CO)c(S(C)(=O)=O)c3)ccc2-n2nc(C(F)(F)F)cc2C)c(-c2ccc(OC(F)(F)F)cc2)o1` [Example 386, (3-fluoro-4′-(5-methyl-3-(trifluoromethyl)-1H-pyrazol-1-yl)-3′-(2-methyl-5-(4-(trifluoromethoxy)phenyl)oxazol-4-yl)-5-(methylsulfonyl)biphenyl-4-yl)methanol], for which the EC50 was 34 nM and the Emax was 86%.

As for `Cc1nc(-c2cc(-c3ccc(CO)c(S(C)(=O)=O)c3)ccc2-n2nc(C(F)(F)F)cc2C)c(-c2ccc(OC(F)(F)F)cc2)o1` [Example 387, (4′-(5-methyl-3-(trifluoromethyl)-1H-pyrazol-1-yl)-3′-(2-methyl-5-(4-(trifluoromethoxy)phenyl)oxazol-4-yl)-3-(methylsulfonyl)biphenyl-4-yl)methanol], the EC50 was 82 nM and the Emax is 79%.

Turning to `Cc1nc(-c2cc(-c3cccc(S(C)(=O)=O)c3)ccc2-n2nc(C(F)(F)F)cc2C)c(-c2ccc3c(c2)OC(F)(F)O3)o1` [Example 388, 5-(2,2-difluorobenzo[d][1,3]dioxol-5-yl)-2-methyl-4-(4-(5-methyl-3-(trifluoromethyl)-1H-pyrazol-1-yl)-3′-(methylsulfonyl)biphenyl-3-yl)oxazole], the EC50 came to 9 nM and the Emax stood at 78%.

As for `Cc1nc(-c2cc(-c3cc(F)c(CO)c(S(C)(=O)=O)c3)ccc2-n2nc(C(F)(F)F)cc2C)c(-c2ccc3c(c2)OC(F)(F)O3)o1` [Example 389, (3′-(5-(2,2-difluorobenzo[d][1,3]dioxol-5-yl)-2-methyloxazol-4-yl)-3-fluoro-4′-(5-methyl-3-(trifluoromethyl)-1H-pyrazol-1-yl)-5-(methylsulfonyl)biphenyl-4-yl)methanol], the EC50 was found to be 7 nM and the Emax came to 84%.

With `Cc1nc(-c2cc(-c3ccc(CO)c(S(C)(=O)=O)c3)ccc2-n2nc(C(F)(F)F)cc2C)c(-c2ccc3c(c2)OC(F)(F)O3)o1` [Example 390, (3′-(5-(2,2-difluorobenzo[d][1,3]dioxol-5-yl)-2-methyloxazol-4-yl)-4′-(5-methyl-3-(trifluoromethyl)-1H-pyrazol-1-yl)-3-(methylsulfonyl)biphenyl-4-yl) methanol], the EC50 amounted to 10 nM and the Emax amounted to 72%.

For `Cc1cc(C(F)(F)F)n(-c2ccc(-c3cc(F)c(CO)c(S(C)(=O)=O)c3)cc2-c2nc(C)oc2-c2ccc(OC(F)F)cc2)n1` [Example 391, (3′-(5-(4-(difluoromethoxy)phenyl)-2-methyloxazol-4-yl)-3-fluoro-4′-(3-methyl-5-(trifluoromethyl)-1H-pyrazol-1-yl)-5-(methylsulfonyl)biphenyl-4-yl)methanol], the EC50 amounted to 165 nM and the Emax was 56%.

Regarding `Cc1nc(-c2cc(-c3ccc(CO)c(S(C)(=O)=O)c3)ccc2-n2nc(C(F)(F)F)cc2C)c(-c2ccc(OC(F)F)cc2)o1` [Example 392, (3′-(5-(4-(difluoromethoxy)phenyl)-2-methyloxazol-4-yl)-4′-(5-methyl-3-(trifluoromethyl)-1H-pyrazol-1-yl)-3-(methylsulfonyl)biphenyl-4-yl)methanol], the EC50 came out at 12 nM and the Emax amounted to 71%.

Consider `Cc1cc(C(F)(F)F)n(-c2ccc(-c3cccc(S(C)(=O)=O)c3)cc2-c2nc(C)oc2-c2ccc(OC(F)F)cc2)n1` [Example 393, 5-(4-(difluoromethoxy)phenyl)-2-methyl-4-(4-(3-methyl-5-(trifluoromethyl)-1H-pyrazol-1-yl)-3′-(methylsulfonyl)biphenyl-3-yl)oxazole], for which the EC50 is 744 nM and the Emax amounted to 40%.

Consider `Cc1nc(-c2cc(-c3cccc(S(C)(=O)=O)c3)ccc2-n2ccc(C(F)(F)F)n2)c(-c2ccc(OC(F)F)nc2)o1` [Example 394, 5-(6-(difluoromethoxy)pyridin-3-yl)-2-methyl-4-(3′-(methylsulfonyl)-4-(3-(trifluoromethyl)-1H-pyrazol-1-yl)biphenyl-3-yl)oxazole], for which the EC50 came out at 16 nM and the Emax is 97%.

Take `Cc1nc(-c2cc(-c3cc(F)c(CO)c(S(C)(=O)=O)c3)ccc2-n2ccc(C(F)(F)F)n2)c(-c2ccc(OC(F)F)nc2)o1` [Example 395, (3′-(5-(6-(difluoromethoxy)pyridin-3-yl)-2-methyloxazol-4-yl)-3-fluoro-5-(methylsulfonyl)-4′-(3-(trifluoromethyl)-1H-pyrazol-1-yl)biphenyl-4-yl)methanol]: the EC50 stood at 11 nM and the Emax came to 83%.

With `Cc1nc(-c2cc(-c3cc(F)c(CO)c(S(C)(=O)=O)c3)ccc2-n2ccc(C(F)(F)F)n2)c(-c2ccc(Cl)c(OC(F)F)c2)o1` [Example 396, (3′-(5-(4-chloro-3-(difluoromethoxy)phenyl)-2-methyloxazol-4-yl)-3-fluoro-5-(methylsulfonyl)-4′-(3-(trifluoromethyl)-1H-pyrazol-1-yl)biphenyl-4-yl)methanol], the EC50 came out at 90 nM and the Emax was 67%.

On to `Cc1nc(-c2cc(-c3cccc(S(C)(=O)=O)c3)ccc2-n2ccc(C(F)(F)F)n2)c(-c2ccc(OC(F)F)c(Cl)c2)o1` [Example 397, 5-(3-chloro-4-(difluoromethoxy)phenyl)-2-methyl-4-(3′-(methylsulfonyl)-4-(3-(trifluoromethyl)-1H-pyrazol-1-yl)biphenyl-3-yl)oxazole], for which the EC50 was 194 nM and the Emax was found to be 68%.

For `CC(C)c1nc(-c2cc(-c3cc(F)c(CO)c(S(C)(=O)=O)c3)ccc2-n2ccc(C(F)(F)F)n2)c(-c2ccc(OC(F)(F)F)cc2)o1` [Example 398, (3-fluoro-3′-(2-isopropyl-5-(4-(trifluoromethoxy)phenyl)oxazol-4-yl)-5-(methylsulfonyl)-4′-(3-(trifluoromethyl)-1H-pyrazol-1-yl)biphenyl-4-yl)methanol], the EC50 came to 38 nM and the Emax was 63%.

For `CC(C)c1nc(-c2cc(-c3cccc(S(C)(=O)=O)c3)ccc2-n2ccc(C(F)(F)F)n2)c(-c2ccc(OC(F)(F)F)cc2)o1` [Example 399, 2-isopropyl-4-(3′-(methylsulfonyl)-4-(3-(trifluoromethyl)-1H-pyrazol-1-yl)biphenyl-3-yl)-5-(4-(trifluoromethoxy)phenyl)oxazole], the EC50 was found to be 200 nM and the Emax stood at 60%.

As for `Cc1nc(-c2cc(-c3cc(F)c(CO)c(S(C)(=O)=O)c3)ccc2-n2ccc(C(F)(F)F)n2)c(-c2ccc(Cl)cc2)o1` [Example 400, (3′-(5-(4-chlorophenyl)-2-methyloxazol-4-yl)-3-fluoro-5-(methylsulfonyl)-4′-(3-(trifluoromethyl)-1H-pyrazol-1-yl)biphenyl-4-yl)methanol], the EC50 was determined as 38 nM and the Emax is 53%.

By EC50 is commonly meant the concentration giving half of the maximal effect.
